Entries after “also recorded” stand apart in the source; their conditions may differ.
Experiments:
A375 cells [1] = assay: Cell proliferation assay (CCK-8), A375; type: cell-based, human; conditions: dose-dependent manner
Experimental: (§1) Cell proliferation assay: cell viability is determined by the cell counting kit-8 (CCK-8) according to the manufacturer's instructions (Abcam, UK). Cells (2000 cells per well) are incubated in the 96-well plate in triplicate and then added to each well at various time points at the final concentration of 10%, and incubation is continued at 37° C. After 60 minutes, the absorbance of the sample is measured at the wavelength of 450 nm. Data is analyzed using GraphPad Prism software.

PBX1 rG1 = assay: EGFP reporter gene system, confocal fluorescence; type: cell-based; conditions: HEK293T cells; 2 μM PDS or 5 μM TMPyP4
Experimental: Construction of an EGFP reporter vector: the reporter vector (Inovogen Tech. Co., Beijing, China) with pLV-EGFP-N as the backbone gene encodes the rG1 site of the PBX1 5′UTR sequence. By using the Strata gene rapid change site-directed mutagenesis kit, point mutation is performed on the rG1 site.
Given that G4s in the promoter and transcript are involved in the regulation of transcription and translation related processes, it is speculated that dG1 in the PBX1 promoter may regulate the transcription of PBX1, and rG1 in 5′UTR of the PBX1 transcript may regulate the transcription of PBX1. In addition, the luciferase reporter assay is first performed. The dG1 promoter sequence (designated as dG1-wt) and mutated dG1 promoter sequence (designated as dG1-mut) of PBX1 are cloned into pGL3 luciferase reporter vector. […] In addition, this embodiment further constructs an enhanced green fluorescent protein (EGFP) reporter gene system, to study the effect of rG1 on translation. The rG1 transcript sequence (designated as rG1-wt) and mutant rG1 transcript sequence (designated as rG1-mut) of PBX1 are fused to 5′UTR of EGFP, and the reporter gene vector is transfected into HEK293T cells. By confocal fluorescence experiments, the EGFP fluorescence intensity of rG1-WT is less than that of rG1-MUT, and PDS or TMPyP4 decreases the fluorescence intensity of rG1-WT in HEK293T cells (FIG. 3B). […]

B16-F10 cells [2] = assay: Cell scratch assay (migration), B16-F10; type: cell-based, mouse; conditions: PDS (2 μM), TMPyP4 (5 μM), 24 h
Experimental: (§2) Cell scratch assay: the cells are seeded in 12-well plate and grown for 24 hours to 80% confluency. The bare region is created by the tip across the diameter of the dish. After being treated with PDS (2 μM) and TMPyP4 (5 μM) for 24 h, the cells are washed with PBS and photographed under the microscope (Leica, Germany) to evaluate cell migration. Six micrographs are taken for each person.

PBX1 = PBX1 mRNA and protein levels by qRT-PCR and western blot in A375 cells; type: cell-based, human; conditions: for mRNA level of PBX1: qRT-PCR; for protein level of PBX1: western blot, normalized to GAPDH
Experimental: RNA extraction and quantitative RT-PCR detection: total RNA is extracted from cultured cells by using TRIzol (Invitrogen, USA), then is converted into cDNA by SuperScript III First-Strand Synthesis SuperMix (Invitrogen, USA). qRT-PCR detection is performed by using SYBR Green®Mix (Invitrogen, USA) in ABI 7500 (Invitrogen, USA). A relative expression quantity of RNA is calculated by using a comparative CT method.
Immunoblotting: for protein analysis of a whole-cell lysate, cells are lysed with RIPA (CWBIO, Beijing, China) buffer solution. For tumors, liquid nitrogen is first used to pulverize tissues. Then, the lysate is generated on ice with the RIPA (CWBIO, Beijing, China) buffer solution for 20 minutes, and then centrifuged at 4° C., 13000 rpm for 15 minutes. Protein-containing supernatant is transferred to the fresh microcentrifuge tube, and stored at −20° C. (short-term storage) for subsequent use. The protein is quantified by using the BIO-RAD DC protein assay. The total proteins are electrophoresed on SDS-polyacrylamide gels. Then, the proteins are transferred to polyvinylidene difluoride (PVDF) membrane. After incubation with the primary antibody overnight on the shaker at 4° C., the membrane is washed 6 times (5 minutes each time) with TBS-T (Invitrogen, USA). Then, blots are incubated with horseradish peroxidase (IRP)-conjugated secondary antibodies for 60 minutes at RT on the plate shaker. The membrane is cleaned by TBS-T (6×5 minutes). Detection on immunoreactive bands is performed by using SuperSignalmWest Pico chemiluminescence substrate kit (Thermo Fisher Scientific, USA) and Western blotting detection system (BioRad, USA). GAPDH is used as the loading control for western blotting. The intensity levels of the bands are normalized to GAPDH.

PBX1 dG1 = assay: PBX1 dual luciferase reporter assay in HEK293T, A375 and B16-F10 cells; type: cell-based
Experimental: Dual luciferase reporter assay: for the PBX1 luciferase reporter gene assay, PBX1 luciferase reporter gene plasmid and pRL-TK plasmid are co-transfected into HEK293T, A375 and B16-F10 cells in the 96-well plate by Lipofectamine 2000 (Invitrogen, USA). 48 hours after transfection, cells are collected and analyzed using the Dual-Luciferase® Reporter Assay System (Promega, USA). The firefly activity is normalized to the activity of Renilla luciferase.
Given that G4s in the promoter and transcript are involved in the regulation of transcription and translation related processes, it is speculated that dG1 in the PBX1 promoter may regulate the transcription of PBX1, and rG1 in 5′UTR of the PBX1 transcript may regulate the transcription of PBX1. In addition, the luciferase reporter assay is first performed. The dG1 promoter sequence (designated as dG1-wt) and mutated dG1 promoter sequence (designated as dG1-mut) of PBX1 are cloned into pGL3 luciferase reporter vector. […] In addition, this embodiment further constructs an enhanced green fluorescent protein (EGFP) reporter gene system, to study the effect of rG1 on translation. The rG1 transcript sequence (designated as rG1-wt) and mutant rG1 transcript sequence (designated as rG1-mut) of PBX1 are fused to 5′UTR of EGFP, and the reporter gene vector is transfected into HEK293T cells. By confocal fluorescence experiments, the EGFP fluorescence intensity of rG1-WT is less than that of rG1-MUT, and PDS or TMPyP4 decreases the fluorescence intensity of rG1-WT in HEK293T cells (FIG. 3B). Finally, this embodiment studies the potential effect of PBX1 G4s on PBX1 expression of A375 and B16-F10 cells.

rG1 = assay: Thermal stability of PBX1 rG1 with G4-specific ligands; type: binding
A375 cells [3] = assay: Cell scratch assay (migration), A375; type: cell-based, human; conditions: PDS (2 μM), TMPyP4 (5 μM), 24 h
Experimental: as §2

dG1 = assay: Thermal stability of PBX1 dG1 with G4-specific ligands; type: binding
B16-F10 cells [4] = assay: Cell proliferation assay (CCK-8), B16-F10; type: cell-based, mouse; conditions: dose-dependent manner
Experimental: as §1

Structure (SMILES) | cell viability (activity) measured by CCK8 (A375 cells [1]) | EGFP fluorescence intensity of rG1-WT (PBX1 rG1) | migration (B16-F10 cells [2]) | mRNA level of PBX1 (PBX1) | protein level of PBX1 (PBX1) | luciferase activity of dG1-mut transfected cells (PBX1 dG1) | luciferase activity of dG1-wt transfected cells (PBX1 dG1) | thermal stability of rG1 (rG1) | migration (A375 cells [3]) | thermal stability of dG1 (dG1) | cell viability (activity) measured by CCK8 (B16-F10 cells [4])
NCCOc1cc(C(=O)Nc2cc(OCCN)c3ccccc3n2)nc(C(=O)Nc2cc(OCCN)c3ccccc3n2)c1 [PDS, Pyridostatin] | reduce; also recorded: remarkably reduces | decreases | inhibit | inhibit; also recorded: remarkably reduces | inhibit; also recorded: remarkably reduces | does not affect | remarkably inhibits | remarkably enhance | inhibit | remarkably enhance | reduce; also recorded: remarkably reduces
C[n+]1ccc(-c2c3nc(c(-c4cc[n+](C)cc4)c4ccc([nH]4)c(-c4cc[n+](C)cc4)c4ccc([nH]4)c(-c4cc[n+](C)cc4)c4nc2C=C4)C=C3)cc1 [TMPyP4] | reduce; also recorded: remarkably reduces | decreases | inhibit | inhibit; also recorded: remarkably reduces | inhibit; also recorded: remarkably reduces | does not affect | remarkably inhibits | remarkably enhance | inhibit | remarkably enhance | reduce; also recorded: remarkably reduces
